Assay results as given in patent US20230000870A1, “METHODS OF TREATING CANCER IN BIOMARKER-IDENTIFIED PATIENTS WITH INHIBITORS OF CYCLIN-DEPENDENT KINASE 7 (CDK7)” (Syros Pharmaceuticals, Inc., priority 2019, published 2023).

Experiments:
[1] = target: CDK7/Cyclin H/MAT1 complex (Homo sapiens, UniProt P50613); test: CDK7 kinase inhibition assay (Caliper/LabChip EZ Reader); format: biochemical; settings: CDK7/Cyclin H/MAT1 6 nM, ATP 2 mM, 35 min at 27° C.
Summary of the method: (§1)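 Caliper/LabChip mobility-shift kinase assays at 27° C. CDK9/Cyclin T1 8 nM with 2 μM 5-FAM-CDK9tide, 10 mM MgCl2, 15 min; CDK12/Cyclin K 50 nM with 5-FAM-CDK9tide 2 μM, 2 mM MgCl2, 3 hr; CDK2/Cyclin E1 0.5 nM with 5-FAM-CDK7tide 2 μM, 2 mM MgCl2, 35 min; CDK7 35 min.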

CDK9/Cyclin T1 complex = CDK9/Cyclin T1 complex (Homo sapiens, UniProt P50750); test: CDK9 kinase inhibition assay (Caliper/LabChip EZ Reader); format: biochemical; settings: CDK9/Cyclin T1 8 nM, ATP 2 mM, 15 min at 27° C.
Summary of the method: as §1

HCC70 cells = test: Inhibition of proliferation of HCC70 cells (CyQUANT Direct, 72 hour); format: cell-based, human; settings: read-out: Inhibition of Proliferation of HCC70 Cells (calculated IC50)
Summary of the method: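 Human triple-negative breast cancer cells grown in RPMI-1640 + 10% FBS at 37 °C, 5% CO2, treated with compounds from 4 μM to […] in 0.5 log steps. Proliferation over 72 h was read by CyQUANT Direct.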

[2] = target: T1, CDK12 (aa686-1082)/Cyclin K complex (Homo sapiens, UniProt Q9NYV4); test: CDK12 kinase inhibition assay (Caliper/LabChip EZ Reader); format: biochemical; settings: CDK12 (aa686-1082)/Cyclin K 50 nM, ATP 2 mM, 3 hr at 27° C.
T1 construct: CDK12 (aa686-1082)/Cyclin K complex
Summary of the method: as §1

A673 cells = test: Inhibition of proliferation of A673 cells (CyQUANT, 72 hour); format: cell-based, human; settings: read-out: Inhibition of Proliferation of A673 Cells (calculated IC50)
Summary of the method: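 Human Ewing's sarcoma A673 cells in DMEM + 10% FBS + 1 mM sodium pyruvate, 37 °C, 5% CO2. Compounds in 0.5-log serial dilutions, stated range 4 μM to […], for 72 h. Anti-proliferative effect read with CyQUANT per kit directions.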

CDK2/Cyclin E1 complex = CDK2/Cyclin E1 complex (Homo sapiens, UniProt P24941); test: CDK2 kinase inhibition assay (Caliper/LabChip EZ Reader); format: biochemical; settings: CDK2/Cyclin E1 0.5 nM, ATP 2 mM, 35 min at 27° C.
Summary of the method: as §1

Sequence of CDK9/Cyclin T1 complex (P50750 whole entry): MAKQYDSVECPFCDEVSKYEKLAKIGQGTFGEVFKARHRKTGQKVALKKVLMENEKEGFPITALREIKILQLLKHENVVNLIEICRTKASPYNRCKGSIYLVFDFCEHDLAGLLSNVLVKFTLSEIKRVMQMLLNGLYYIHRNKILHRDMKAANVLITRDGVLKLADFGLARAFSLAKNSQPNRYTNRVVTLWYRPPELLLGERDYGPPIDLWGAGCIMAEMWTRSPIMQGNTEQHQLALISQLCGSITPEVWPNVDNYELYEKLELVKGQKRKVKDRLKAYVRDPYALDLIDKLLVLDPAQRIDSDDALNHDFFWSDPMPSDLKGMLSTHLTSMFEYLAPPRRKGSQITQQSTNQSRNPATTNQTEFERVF
Sequence of CDK9/Cyclin T1 complex (O60563 whole entry partner): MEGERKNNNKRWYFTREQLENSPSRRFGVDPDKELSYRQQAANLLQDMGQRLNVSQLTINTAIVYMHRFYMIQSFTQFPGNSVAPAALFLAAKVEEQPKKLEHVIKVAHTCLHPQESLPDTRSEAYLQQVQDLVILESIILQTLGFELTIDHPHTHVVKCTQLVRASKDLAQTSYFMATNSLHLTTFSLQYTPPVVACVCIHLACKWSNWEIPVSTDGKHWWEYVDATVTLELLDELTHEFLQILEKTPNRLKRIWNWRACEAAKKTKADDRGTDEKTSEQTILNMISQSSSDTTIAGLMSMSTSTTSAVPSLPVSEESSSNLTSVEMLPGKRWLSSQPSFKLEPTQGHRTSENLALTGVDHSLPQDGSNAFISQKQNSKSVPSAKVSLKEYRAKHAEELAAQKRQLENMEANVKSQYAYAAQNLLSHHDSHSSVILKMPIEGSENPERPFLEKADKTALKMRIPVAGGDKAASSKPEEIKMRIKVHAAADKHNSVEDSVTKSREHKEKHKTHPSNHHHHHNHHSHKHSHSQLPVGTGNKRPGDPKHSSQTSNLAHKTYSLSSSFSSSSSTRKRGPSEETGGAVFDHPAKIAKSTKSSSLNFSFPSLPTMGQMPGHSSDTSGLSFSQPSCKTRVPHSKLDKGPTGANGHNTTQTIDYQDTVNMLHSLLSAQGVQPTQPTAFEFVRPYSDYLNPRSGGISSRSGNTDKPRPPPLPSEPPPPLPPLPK
Sequence of CDK7/Cyclin H/MAT1 complex (P50613 whole entry): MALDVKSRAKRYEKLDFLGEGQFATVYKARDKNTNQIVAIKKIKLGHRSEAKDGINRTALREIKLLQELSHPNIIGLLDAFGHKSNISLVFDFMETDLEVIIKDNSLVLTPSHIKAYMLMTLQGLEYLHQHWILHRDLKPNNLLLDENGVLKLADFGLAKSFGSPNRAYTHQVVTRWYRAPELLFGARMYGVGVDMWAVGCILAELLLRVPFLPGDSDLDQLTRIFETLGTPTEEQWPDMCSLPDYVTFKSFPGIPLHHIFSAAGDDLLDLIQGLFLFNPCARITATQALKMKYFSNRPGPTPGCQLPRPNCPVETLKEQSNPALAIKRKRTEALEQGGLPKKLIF
Sequence of CDK7/Cyclin H/MAT1 complex (P51946 whole entry partner): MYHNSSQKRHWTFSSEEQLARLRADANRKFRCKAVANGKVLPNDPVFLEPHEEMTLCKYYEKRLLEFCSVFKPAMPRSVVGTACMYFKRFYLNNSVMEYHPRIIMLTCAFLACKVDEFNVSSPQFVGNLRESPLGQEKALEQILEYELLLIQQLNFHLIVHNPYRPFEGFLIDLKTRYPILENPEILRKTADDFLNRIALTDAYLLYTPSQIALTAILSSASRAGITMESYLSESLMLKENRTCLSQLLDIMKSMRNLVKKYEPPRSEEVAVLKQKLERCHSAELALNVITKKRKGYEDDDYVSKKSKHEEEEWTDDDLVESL
Sequence of CDK7/Cyclin H/MAT1 complex (P51948 whole entry partner): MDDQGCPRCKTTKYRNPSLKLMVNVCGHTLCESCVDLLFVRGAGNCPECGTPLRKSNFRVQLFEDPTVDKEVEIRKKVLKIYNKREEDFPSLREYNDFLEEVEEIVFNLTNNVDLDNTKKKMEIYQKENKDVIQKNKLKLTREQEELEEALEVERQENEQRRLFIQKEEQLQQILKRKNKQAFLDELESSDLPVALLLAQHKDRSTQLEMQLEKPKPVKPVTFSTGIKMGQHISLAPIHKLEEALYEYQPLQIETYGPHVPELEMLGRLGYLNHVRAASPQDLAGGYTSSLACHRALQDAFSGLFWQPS
T1 sequence (Q9NYV4 686-1082): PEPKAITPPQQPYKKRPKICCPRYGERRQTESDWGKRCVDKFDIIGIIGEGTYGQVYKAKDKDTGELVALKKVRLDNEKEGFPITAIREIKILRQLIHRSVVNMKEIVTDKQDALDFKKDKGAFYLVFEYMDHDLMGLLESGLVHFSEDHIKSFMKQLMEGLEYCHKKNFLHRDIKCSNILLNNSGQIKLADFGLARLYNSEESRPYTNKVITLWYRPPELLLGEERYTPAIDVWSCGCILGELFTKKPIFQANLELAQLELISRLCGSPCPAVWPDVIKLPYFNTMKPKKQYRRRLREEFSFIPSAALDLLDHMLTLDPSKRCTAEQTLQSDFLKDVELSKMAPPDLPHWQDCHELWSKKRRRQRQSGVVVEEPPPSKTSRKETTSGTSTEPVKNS
T1 sequence (O75909 whole entry partner, the tested form may be a part): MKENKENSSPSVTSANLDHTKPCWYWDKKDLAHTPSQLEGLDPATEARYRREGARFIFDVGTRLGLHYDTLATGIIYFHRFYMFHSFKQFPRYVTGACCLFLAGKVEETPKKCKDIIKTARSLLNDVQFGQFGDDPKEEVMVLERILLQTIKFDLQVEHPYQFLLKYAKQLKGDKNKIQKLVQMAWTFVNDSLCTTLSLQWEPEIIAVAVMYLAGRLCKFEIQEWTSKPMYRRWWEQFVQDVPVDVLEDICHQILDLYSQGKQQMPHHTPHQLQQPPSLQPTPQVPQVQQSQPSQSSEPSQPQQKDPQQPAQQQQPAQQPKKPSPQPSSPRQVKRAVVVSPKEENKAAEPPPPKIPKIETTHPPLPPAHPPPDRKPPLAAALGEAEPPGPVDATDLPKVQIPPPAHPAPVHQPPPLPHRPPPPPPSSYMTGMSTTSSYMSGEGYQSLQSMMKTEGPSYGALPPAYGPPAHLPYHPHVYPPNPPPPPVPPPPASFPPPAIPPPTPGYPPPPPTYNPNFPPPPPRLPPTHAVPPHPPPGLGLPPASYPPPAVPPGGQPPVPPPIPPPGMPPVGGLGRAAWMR

IC50 [1] [nM] | IC50 (CDK9/Cyclin T1 complex) [nM] | IC50 [2] [nM] | IC50 (CDK2/Cyclin E1 complex) [nM] | SMILES | IC50 (HCC70 cells) [nM] | IC50 (A673 cells) [nM]
< 20 | 200 to 5000 | 200 to 5000 | 200 to 5000 | CN1CCN(c2cccc3c(-c4nc(NC5CCCNC5)ncc4C(F)(F)F)c[nH]c23)C1=O (stereo not drawn) [Compound 176] | 100 to 1000 | < 20
< 20 | 200 to 5000 | 20 to 200 | 20 to 200 | FC(F)(F)c1cnc(NC2CCCNC2)nc1-c1c[nH]c2c(-c3ccnnc3)cccc12 (stereo not drawn) [Compound 180] | < 100 | < 20
< 20 | 200 to 5000 | 200 to 5000 | 20 to 200 | OC1CCC(c2cccc3c(-c4nc(NC5CCCNC5)ncc4C(F)(F)F)c[nH]c23)CC1 (stereo not drawn) [Compound 185] | < 100 | < 20
< 20 | 200 to 5000 | 200 to 5000 | 200 to 5000 | CC1(C)CCC(Nc2ncc(C(F)(F)F)c(-c3c[nH]c4ccccc34)n2)CN1 (stereo not drawn) [Compound 190] | 100 to 1000 | < 20
< 20 | 200 to 5000 | 200 to 5000 | 200 to 5000 | CS(=O)(=O)c1ccc2c(-c3nc(NC4CCCNC4)ncc3C(F)(F)F)c[nH]c2c1 (stereo not drawn) [Compound 199] | 100 to 1000 | < 20
< 20 | ≥ 5000 | ≥ 5000 | ≥ 5000 | CC1(O)CCN(C(=O)c2ccc3c(-c4nc(NC5CCCNC5)ncc4C(F)(F)F)c[nH]c3c2)C1 (stereo not drawn) [Compound 221] | 100 to 1000 | 200 to 5000
< 20 | 200 to 5000 | 200 to 5000 | 200 to 5000 | CS(=O)(=O)c1c(C#N)ccc2c(-c3nc(N[C@H]4CCCNC4)ncc3C(F)(F)F)c[nH]c12 [Compound 232] | < 100 | < 20
< 20 | ≥ 5000 | ≥ 5000 | ≥ 5000 | CCc1cnc(NC2CCCNC2)nc1-c1c[nH]c2cc(C#N)ccc12 (stereo not drawn) [Compound 246] | 100 to 1000 | 200 to 5000
< 20 | ≥ 5000 | 200 to 5000 | 200 to 5000 | O=C(c1ccc2c(-c3nc(N[C@H]4CCCNC4)ncc3C(F)(F)F)c[nH]c2c1)N1CC[C@@H](O)C1 [Compound 250] | 1000 to 5000 | 200 to 5000
< 20 | 200 to 5000 | 200 to 5000 | 200 to 5000 | N#Cc1ccc2c(-c3nc(NC4CCCNC4)ncc3C(F)(F)F)c[nH]c2n1 (stereo not drawn) [Compound 251] | < 100 | < 20
20 to 200 | 200 to 5000 | 200 to 5000 | 200 to 5000 | N#Cc1ccc2c(-c3nc(N[C@@H]4CCCNC4)ncc3C(F)(F)F)c[nH]c2c1-c1ccnnc1 [Compound 261] | < 100 | < 20
< 20 | ≥ 5000 | ≥ 5000 | ≥ 5000 | CCc1cnc(NC2CCCNC2)nc1-c1c[nH]c2c(S(C)(=O)=O)c(C#N)ccc12 (stereo not drawn) [Compound 263] | 100 to 1000 | 20 to 200
20 to 200 | 200 to 5000 | 200 to 5000 | 200 to 5000 | FC(F)(F)c1cnc(NC2CNCC(c3nnc4ccccn34)C2)nc1-c1c[nH]c2ccccc12 (stereo not drawn) [Compound 267] | < 100 | < 20
< 20 | 200 to 5000 | 200 to 5000 | 200 to 5000 | CCc1cnc(NC2CCCNC2)nc1-c1n[nH]c2nc(C#N)ccc12 (stereo not drawn) [Compound 277] | 100 to 1000 | 20 to 200
20 to 200 | ≥ 5000 | 200 to 5000 | 200 to 5000 | O=C(c1ccc2c(-c3nc(NC4CCCNC4)ncc3C(F)(F)F)c[nH]c2c1)N1CCCC1 (stereo not drawn) [Compound 278] | 100 to 1000 | 20 to 200
20 to 200 | ≥ 5000 | ≥ 5000 | ≥ 5000 | Cn1cc(-c2nc(NC3CCCNC3)ncc2C(F)(F)F)c2cccc(C#N)c21 (stereo not drawn) [Compound 279] | 1000 to 5000 | 200 to 5000
200 to 5000 | ≥ 5000 | ≥ 5000 | ≥ 5000 | COCn1cc(-c2nc(NC3CCCNC3)ncc2C(F)(F)F)c2ccc(C#N)nc21 (stereo not drawn) [Compound 283] | 1000 to 5000 | 200 to 5000
< 20 | 200 to 5000 | 200 to 5000 | 200 to 5000 | CCN1CCCC(Nc2ncc(C(F)(F)F)c(-c3c[nH]c4cc(C#N)ccc34)n2)C1 (stereo not drawn) [Compound 284] | 100 to 1000 | 20 to 200
200 to 5000 | ≥ 5000 | ≥ 5000 | ≥ 5000 | CC1CCNCC1Nc1ncc(C(F)(F)F)c(-c2c[nH]c3ccccc23)n1 (stereo not drawn) [Compound 285] | < 100 | < 20
< 20 | 200 to 5000 | 200 to 5000 | 200 to 5000 | CCS(=O)(=O)c1cccc2c(-c3nc(N[C@H]4CCCNC4)ncc3C(F)(F)F)c[nH]c12 [Compound 286] | 1000 to 5000 | 200 to 5000
< 20 | ≥ 5000 | ≥ 5000 | ≥ 5000 | CCc1cnc(NC2CCCNC2)nc1-c1c[nH]c2nc(C#N)ccc12 (stereo not drawn) [Compound 287] | 100 to 1000 | 20 to 200
20 to 200 | 200 to 5000 | 200 to 5000 | 200 to 5000 | FC(F)n1ccc(-c2ccc3c(-c4nc(NC5CCCNC5)ncc4C(F)(F)F)c[nH]c3c2)n1 (stereo not drawn) [Compound 289] | 100 to 1000 | 20 to 200
20 to 200 | 200 to 5000 | 200 to 5000 | 200 to 5000 | FC(F)n1cc(-c2ccc3c(-c4nc(NC5CCCNC5)ncc4C(F)(F)F)c[nH]c3c2)cn1 (stereo not drawn) [Compound 290] | 100 to 1000 | 20 to 200
< 20 | 200 to 5000 | 200 to 5000 | 200 to 5000 | FC(F)(F)c1cnc(NC2CCCNC2)nc1-c1c[nH]c2cc(-c3cc[nH]n3)ccc12 (stereo not drawn) [Compound 291] | 100 to 1000 | 20 to 200
< 20 | 200 to 5000 | 200 to 5000 | 200 to 5000 | N#CC1CCN(C(=O)c2ccc3c(-c4nc(NC5CCCNC5)ncc4C(F)(F)F)c[nH]c3c2)C1 (stereo not drawn) [Compound 292] | 100 to 1000 | 20 to 200
